Where two headings read alike, the source gives them in different places.
Legend:
FraB [1] = target: T1, FraB (Salmonella enterica subsp. enterica serovar Typhimurium, UniProt Q8ZLD0); experiment: FraB assay, Michaelis–Menten kinetics with substrate; format: biochemical
Experimental: The substrate for FraB, 6‐P‐F‐Asp, was synthesized as previously described. FraB activity was monitored as described previously, with the following changes. The final reaction (30 μL) consisted of 25 mM HEPES pH 8 (at 20 °C), 5 mM MgCl2, 0.1 mM ethylene glycol tetraacetic acid (EGTA), 0.5 mM NAD^+, 1 mU G6PD from Leuconostoc mesenteroides (#LS003981; Worthington Biochemicals, Lakewood, NJ, USA), 100 nM His6‐FraB, and 0–3 mM 6‐P‐F‐Asp. The reaction mixture without substrate (29 μL) was added to one well of a 384‐well polystyrene white μClear® microplate (#781095; Greiner Bio‐One, Monroe, NC, USA) and incubated at 37 °C for 2 min, prior to the addition of 1 μL substrate to initiate the reaction. NADH generation was monitored using either absorbance (340 nm) or fluorescence (350 nm excitation, 450 nm emission) and with either an INFINITE M1000 PRO (Tecan, Mannedorf, Switzerland) or Synergy H1 (Biotek, Winooski, VT, USA) plate reader. Absorbance/fluorescence was plotted against time and slopes were obtained by linear regression analyses. These slopes were converted into initial velocities by dividing them by either the absorbance extinction coefficient (ε340 = 6,220 M ^−1·cm^−1) or the molar fluorescence determined based on standard curves obtained in different plate readers (23,646 RFUs·μM ^−1, Tecan; 285,108 RFUs·μM ^−1, Biotek; Fig. S2). […]

FraB [2] = target: T1, FraB; conditions: previously reported; cited from earlier work
[3] = substrate: O=C(O)C[C@H](NCC1(O)O[C@H](COP(=O)(O)O)[C@@H](O)[C@@H]1O)C(=O)O; experiment: FraB assay, Michaelis–Menten kinetics with substrate; format: biochemical, Salmonella; conditions: pH 8.0
Experimental: The substrate for FraB, 6‐P‐F‐Asp, was synthesized as previously described. FraB activity was monitored as described previously, with the following changes. The final reaction (30 μL) consisted of 25 mM HEPES pH 8 (at 20 °C), 5 mM MgCl2, 0.1 mM ethylene glycol tetraacetic acid (EGTA), 0.5 mM NAD^+, 1 mU G6PD from Leuconostoc mesenteroides (#LS003981; Worthington Biochemicals, Lakewood, NJ, USA), 100 nM His6‐FraB, and 0–3 mM 6‐P‐F‐Asp. The reaction mixture without substrate (29 μL) was added to one well of a 384‐well polystyrene white μClear® microplate (#781095; Greiner Bio‐One, Monroe, NC, USA) and incubated at 37 °C for 2 min, prior to the addition of 1 μL substrate to initiate the reaction. NADH generation was monitored using either absorbance (340 nm) or fluorescence (350 nm excitation, 450 nm emission) and with either an INFINITE M1000 PRO (Tecan, Mannedorf, Switzerland) or Synergy H1 (Biotek, Winooski, VT, USA) plate reader. Absorbance/fluorescence was plotted against time and slopes were obtained by linear regression analyses. These slopes were converted into initial velocities by dividing them by either the absorbance extinction coefficient (ε340 = 6,220 M ^−1·cm^−1) or the molar fluorescence determined based on standard curves obtained in different plate readers (23,646 RFUs·μM ^−1, Tecan; 285,108 RFUs·μM ^−1, Biotek; Fig. S2). These initial velocities (v o) in turn were plotted against [6‐P‐F‐Asp] to obtain Michaelis–Menten curves that were fit to the formula v o = (V max × [S])/(K m + [S]) by Kaleidagraph (Version 4.5.3; Synergy Software, Reading, PA, USA). The activity of recombinant FraB (Fig. S3) was similar to that as reported previously.

[4] = other: newer batches of substrate
[5] = other: representative Michaelis-Menten plot, Fig. S3, curve-fit errors

Molecule	K m (FraB [1]; approximate value used for [S]/K m)	K m (FraB [1]; newer batches of substrate)	K m (FraB [2])	k cat (FraB [2])	k cat/K m (FraB [2])	kcat [3, 4]	kcat/Km [3, 4]	Km [3, 5]	kcat [3, 5]	kcat/Km [3, 5]
O=C(O)C[C@H](NCC1(O)O[C@H](COP(=O)(O)O)[C@@H](O)[C@@H]1O)C(=O)O (stereo partly shown) [6‐P‐F‐Asp, 6‐phosphofructose‐aspartate]	~ 40 μM	0.042 ± 0.007 mM	116 ± 12 µM	1.05 ± 0.167 s⁻¹	543 min^−1 mM ^−1	–	–	–	–	–
FraB (Salmonella enterica subsp. enterica serovar Typhimurium str. LT2) (protein) MMGMKETVSNIVTSQAEKGGVKHVYYVACGGSYAAFYPAKAFLEKEAKALTVGLYNSGEFINNPPVALGENAVVVVASHKGNTPETIKAAEIARQHGAPVIGLTWIMDSPLVAHCDYVETYTFGDGKDIAGEKTMKGLLSAVELLQQTEGYAHYDDFQDGVSKINRIVWRACEQVAERAQAFAQEYKDDKVIYTVASGAGYGAAYLQSICIFMEMQWIHSACIHSGEFFHGPFEITDANTPFFFQFSEGNTRAVDERALNFLKKYGRRIEVVDAKELGLSTIKTTVIDYFNHSLFNNVYPVYNRALAEARQHPLTTRRYMWKVEY	–	–	–	–	–	0.95 ± 0.012 s⁻¹	1,357 min^−1 mM ^−1	67 ± 8 µM	1.16 ± 0.00317 s⁻¹	1040 min⁻¹ mM⁻¹
